Key:
Test in all cases: relative viability vs DMSO control (72 h) (fraction); higher = more viable cells
[1] = system: A204
Procedure, shortened: (§1)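 Serially diluted compound, 2.5 µl from source plates spanning 10 mM to 0.0002 mM, was added 24 h after sarcoma cell lines were seeded in 384-well plates at densities targeting 80–90% confluence. Plates then sat 72 h at 37 °C, 5% CO2, with 0.1% DMSO vehicle and a 5 µM positive control. Relative viability came from ATPLite as percent growth, averaged over up to triplicate wells, and was rescaled with 1 as full and 0 as none.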

[2] = system: G401
Procedure, shortened: as §1

[3] = system: HS729
Procedure, shortened: as §1

[4] = system: KHOS-NP
Procedure, shortened: as §1

[5] = system: MES-SA
Procedure, shortened: as §1

[6] = system: RD
Procedure, shortened: as §1

[7] = system: SK-ES-1
Procedure, shortened: as §1

[8] = system: SK-LMS-1
Procedure, shortened: as §1

[9] = system: SW684
Procedure, shortened: as §1

[10] = system: SW872
Procedure, shortened: as §1

[11] = system: SYO-1
Procedure, shortened: as §1

[12] = system: VA-ES-BJ
Procedure, shortened: as §1

O=C1CCc2c(Oc3ccc4c(c3)[C@@H]3[C@H](O4)[C@H]3c3nc4cc(C(F)(F)F)ccc4[nH]3)ccnc2N1 [Lifirafenib]
Conditions	relative viability
[1], 0.00017 µM	1.1
[1], 0.00051 µM	1.12
[1], 0.00152 µM	1.12
[1], 0.00457 µM	1.104
[1], 0.01372 µM	1.1
[1], 0.04115 µM	1.11
[1], 0.1235 µM	1.1
[1], 0.3704 µM	0.781
[1], 1.111 µM	0.49
[1], 3.333 µM	0.38
[1], 10 µM	0.317
[2], 0.00017 µM	1.02
[2], 0.00051 µM	1.03
[2], 0.00152 µM	1.03
[2], 0.00457 µM	1.02
[2], 0.01372 µM	1.02
[2], 0.04115 µM	1.03
[2], 0.1235 µM	1.035
[2], 0.3704 µM	1.01
[2], 1.111 µM	0.957
[2], 3.333 µM	0.787
[2], 10 µM	0.625
[3], 0.00017 µM	0.947
[3], 0.00051 µM	0.921
[3], 0.00152 µM	0.926
[3], 0.00457 µM	0.937
[3], 0.01372 µM	0.886
[3], 0.04115 µM	0.907
[3], 0.1235 µM	0.871
[3], 0.3704 µM	0.852
[3], 1.111 µM	0.8769
[3], 3.333 µM	0.851
[3], 10 µM	0.817
[4], 0.00017 µM	1.07
[4], 0.00051 µM	1.07
[4], 0.00152 µM	1.07
[4], 0.00457 µM	1.07
[4], 0.01372 µM	1.064
[4], 0.04115 µM	1.05
[4], 0.1235 µM	1.06
[4], 0.3704 µM	1.07
[4], 1.111 µM	0.8425
[4], 3.333 µM	0.433
[4], 10 µM	0.321
[5], 0.00017 µM	0.948
[5], 0.00051 µM	0.952
[5], 0.00152 µM	0.954
[5], 0.00457 µM	0.955
[5], 0.01372 µM	0.961
[5], 0.04115 µM	0.974
[5], 0.1235 µM	0.985
[5], 0.3704 µM	0.992
[5], 1.111 µM	0.956
[5], 3.333 µM	0.792
[5], 10 µM	0.493
[6], 0.00017 µM	1.08
[6], 0.00051 µM	1.1
[6], 0.00152 µM	1.09
[6], 0.00457 µM	1.13
[6], 0.01372 µM	1.11
[6], 0.04115 µM	1.13
[6], 0.1235 µM	1.11
[6], 0.3704 µM	1.039
[6], 1.111 µM	0.947
[6], 3.333 µM	0.787
[6], 10 µM	0.5251
[7], 0.00017 µM	1.01
[7], 0.00051 µM	1.04
[7], 0.00152 µM	1.068
[7], 0.00457 µM	1.05
[7], 0.01372 µM	1.09
[7], 0.04115 µM	1.07
[7], 0.1235 µM	1.06
[7], 0.3704 µM	1.08
[7], 1.111 µM	1.04
[7], 3.333 µM	0.867
[7], 10 µM	0.572
[8], 0.00017 µM	1.04
[8], 0.00051 µM	1.06
[8], 0.00152 µM	1.09
[8], 0.00457 µM	1.08
[8], 0.01372 µM	1.1
[8], 0.04115 µM	1.11
[8], 0.1235 µM	1.14
[8], 0.3704 µM	1.1
[8], 1.111 µM	0.876
[8], 3.333 µM	0.6129
[8], 10 µM	0.438
[9], 0.00017 µM	1.17
[9], 0.00051 µM	1.2
[9], 0.00152 µM	1.18
[9], 0.00457 µM	1.16
[9], 0.01372 µM	1.15
[9], 0.04115 µM	1.15
[9], 0.1235 µM	1.154
[9], 0.3704 µM	1.22
[9], 1.111 µM	1.32
[9], 3.333 µM	1.3
[9], 10 µM	0.936
[10], 0.00017 µM	0.974
[10], 0.00051 µM	0.998
[10], 0.00152 µM	1.01
[10], 0.00457 µM	1.03
[10], 0.01372 µM	1.03
[10], 0.04115 µM	0.98
[10], 0.1235 µM	0.941
[10], 0.3704 µM	0.735
[10], 1.111 µM	0.644
[10], 3.333 µM	0.644
[10], 10 µM	0.59
[11], 0.00017 µM	0.947
[11], 0.00051 µM	0.941
[11], 0.00152 µM	0.9369
[11], 0.00457 µM	0.947
[11], 0.01372 µM	0.937
[11], 0.04115 µM	0.91
[11], 0.1235 µM	0.905
[11], 0.3704 µM	0.823
[11], 1.111 µM	0.666
[11], 3.333 µM	0.555
[11], 10 µM	0.437
[12], 0.00017 µM	1.037
[12], 0.00051 µM	1.039
[12], 0.00152 µM	1.046
[12], 0.00457 µM	1.03
[12], 0.01372 µM	1.03
[12], 0.04115 µM	1.04
[12], 0.1235 µM	1.09
[12], 0.3704 µM	1.108
[12], 1.111 µM	1.11
[12], 3.333 µM	1.09
[12], 10 µM	0.798

Source: the supplement of paper PMC10883282
